Common to all, as to type: functional, cell-based
For data set [1], the target named is T1, ATP-dependent translocase ABCB1 (Homo sapiens, UniProt P08183). The experiment in a line: TP_TRANSPORTER: inhibition of Daunorubicin transepithelial transport (basal to apical) (Daunorubicin: 0.035 uM, Nifedipine: 50 uM) in MDR1-expressing LLC-PK1 cells. The settings on record: pig, llc-pk1, 50 µM.
In data set [2] the target is T1, ATP-dependent translocase ABCB1. The experiment in a line: TP_TRANSPORTER: inhibition of Digoxin transepithelial transport (basal to apical) (Digoxin: 0.025 uM, Oxidized nifedipine: 50 uM) in MDR1-expressing LLC-PK1 cells. To be noted: pig, llc-pk1, 50 µM.
Data set [3] has the same target. Description: TP_TRANSPORTER: inhibition of Daunorubicin transepithelial transport (basal to apical) (Daunorubicin: 0.035 uM, Oxidized nifedipine: 50 uM) in MDR1-expressing LLC-PK1 cells. To be noted: pig, llc-pk1, 50 µM.
Data set [4] shares this target. The experiment in a line: TP_TRANSPORTER: inhibition of Digoxin transepithelial transport (basal to apical)(Digoxin: 0.025 uM, Midazolam: 50 uM) in MDR1-expressing LLC-PK1 cells. The settings on record: pig, llc-pk1, 50 µM.
The target is the same in data set [5]. Description: TP_TRANSPORTER: inhibition of Daunorubicin transepithelial transport (basal to apical)(Daunorubicin: 0.035 uM, Midazolam: 50 uM) in MDR1-expressing LLC-PK1 cells. To be noted: pig, llc-pk1, 50 µM.
Data set [6] shares this target. Description: TP_TRANSPORTER: inhibition of Daunorubicin transepithelial transport (basal to apical)(Daunorubicin: 0.035 uM, 1'-hydroxymidazolam: 50 uM) in MDR1-expressing LLC-PK1 cells. The settings on record: pig, llc-pk1, 50 µM.
The target is the same in data set [7]. Description: TP_TRANSPORTER: inhibition of Digoxin transepithelial transport (basal to apical)(Digoxin: 0.025 uM, 1'-hydroxymidazolam: 50 uM) in MDR1-expressing LLC-PK1 cells. To be noted: pig, llc-pk1, 50 µM.
Data set [8] shares this target. Description: TP_TRANSPORTER: inhibition of Daunorubicin transepithelial transport (basal to apical)(Daunorubicin: 0.035 uM, 6beta-hydroxytestosterone: 50 uM) in MDR1-expressing LLC-PK1 cells. To be noted: pig, llc-pk1, 50 µM.
The target is the same in data set [9]. The experiment in a line: TP_TRANSPORTER: inhibition of Digoxin transepithelial transport (basal to apical)(Digoxin: 0.025 uM, 6beta-hydroxytestosterone: 50 uM) in MDR1-expressing LLC-PK1 cells. To be noted: pig, llc-pk1, 50 µM.
Data set [10] shares this target. The experiment in a line: TP_TRANSPORTER: inhibition of Daunorubicin transepithelial transport (basal to apical) (Daunorubicin: 0.035 uM) in MDR1-expressing LLC-PK1 cells.
Data set [11] shares this target. The experiment in a line: TP_TRANSPORTER: inhibition of Digoxin transepithelial transport (basal to apical) (Digoxin: 0.025 uM) in MDR1-expressing LLC-PK1 cells.
For data set [12] the target is unchanged. Description: TP_TRANSPORTER: inhibition of Daunorubicin transepithelial transport (basal to apical)(Daunorubicin: 0.035 uM, 4-hydroxymidazolam: 50 uM) in MDR1-expressing LLC-PK1 cells. To be noted: pig, llc-pk1, 50 µM.
Data set [13] has the same target. Description: TP_TRANSPORTER: inhibition of Digoxin transepithelial transport (basal to apical)(Digoxin: 0.025 uM, 6-hydroxyazelastine: 50 uM) in MDR1-expressing LLC-PK1 cells. The settings on record: pig, llc-pk1, 50 µM.
The target is the same in data set [14]. The experiment in a line: TP_TRANSPORTER: inhibition of Daunorubicin transepithelial transport (basal to apical)(Daunorubicin: 0.035 uM, 6-hydroxyazelastine: 50 uM) in MDR1-expressing LLC-PK1 cells. The settings on record: pig, llc-pk1, 50 µM.
For data set [15] the target is unchanged. The experiment in a line: TP_TRANSPORTER: inhibition of Daunorubicin transepithelial transport (basal to apical)(Daunorubicin: 0.035 uM, Testosterone: 50 uM) in MDR1-expressing LLC-PK1 cells. The settings on record: pig, llc-pk1, 50 µM.
Data set [16] has the same target. The experiment in a line: TP_TRANSPORTER: inhibition of Digoxin transepithelial transport (basal to apical)(Digoxin: 0.025 uM, Testosterone: 50 uM) in MDR1-expressing LLC-PK1 cells. To be noted: pig, llc-pk1, 50 µM.

This passage reports Activity and IC50 results from ChEMBL document CHEMBL2074031, “Inhibitory effects of CYP3A4 substrates and their metabolites on P-glycoprotein-mediated transport” (Eur J Pharm Sci, 2001).

T1 sequence (P08183 whole entry): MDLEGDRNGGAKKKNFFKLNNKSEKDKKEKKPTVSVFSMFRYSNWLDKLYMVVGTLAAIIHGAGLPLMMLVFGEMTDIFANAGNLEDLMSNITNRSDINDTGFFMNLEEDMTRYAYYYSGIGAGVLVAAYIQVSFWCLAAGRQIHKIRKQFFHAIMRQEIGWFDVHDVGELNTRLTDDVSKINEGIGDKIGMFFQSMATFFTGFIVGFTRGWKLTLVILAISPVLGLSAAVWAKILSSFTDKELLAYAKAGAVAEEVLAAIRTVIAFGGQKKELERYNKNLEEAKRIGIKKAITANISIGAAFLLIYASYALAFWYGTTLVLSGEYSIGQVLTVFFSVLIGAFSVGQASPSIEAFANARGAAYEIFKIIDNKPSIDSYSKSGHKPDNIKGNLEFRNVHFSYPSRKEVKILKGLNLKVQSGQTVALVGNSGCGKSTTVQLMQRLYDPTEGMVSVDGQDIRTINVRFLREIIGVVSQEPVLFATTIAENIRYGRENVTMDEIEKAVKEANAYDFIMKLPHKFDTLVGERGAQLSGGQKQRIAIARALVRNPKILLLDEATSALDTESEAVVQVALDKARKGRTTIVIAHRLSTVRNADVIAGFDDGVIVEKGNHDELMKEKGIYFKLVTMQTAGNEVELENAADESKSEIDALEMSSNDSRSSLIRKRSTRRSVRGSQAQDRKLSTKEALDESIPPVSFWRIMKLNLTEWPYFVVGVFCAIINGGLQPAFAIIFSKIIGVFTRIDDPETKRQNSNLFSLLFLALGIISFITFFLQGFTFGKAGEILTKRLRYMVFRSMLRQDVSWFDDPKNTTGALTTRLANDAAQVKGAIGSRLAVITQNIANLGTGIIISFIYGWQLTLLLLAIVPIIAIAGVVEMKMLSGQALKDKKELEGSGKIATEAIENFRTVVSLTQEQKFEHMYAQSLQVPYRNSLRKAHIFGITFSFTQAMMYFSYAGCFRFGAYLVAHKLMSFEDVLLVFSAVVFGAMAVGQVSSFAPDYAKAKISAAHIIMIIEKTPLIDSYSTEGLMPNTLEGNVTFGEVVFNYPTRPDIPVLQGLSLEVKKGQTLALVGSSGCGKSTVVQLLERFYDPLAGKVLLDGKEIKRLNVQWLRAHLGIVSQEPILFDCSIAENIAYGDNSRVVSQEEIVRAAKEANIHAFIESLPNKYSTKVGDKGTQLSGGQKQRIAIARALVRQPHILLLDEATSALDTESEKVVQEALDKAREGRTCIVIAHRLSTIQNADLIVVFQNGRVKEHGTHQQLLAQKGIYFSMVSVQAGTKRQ

For the compound `COC(=O)C1=C(C)NC(C)=C(C(=O)OC)C1c1ccccc1[N+](=O)[O-]` [NIFEDIPINE], the Activity entry in [1] was “is not an inhibitor [-]”. As to `COC(=O)c1c(C)nc(C)c(C(=O)OC)c1-c1ccccc1[N+](=O)[O-]`, the Activity result in [2] and in data set [3] was “is not an inhibitor [-]” in each case. With `Cc1ncc2n1-c1ccc(Cl)cc1C(c1ccccc1F)=NC2` [MIDAZOLAM], the Activity result in data set [4] and in data set [5] was “is not an inhibitor [-]” each time.

As for `OCc1ncc2n1-c1ccc(Cl)cc1C(c1ccccc1F)=NC2` [ALPHA-HYDROXY-MIDAZOLAM], the Activity result in data set [6] and in data set [7] was “is not an inhibitor [-]” each time. Take `C[C@]12CC[C@H]3[C@@H](C[C@@H](O)C4=CC(=O)CC[C@@]43C)[C@@H]1CC[C@@H]2O` [6beta-hydroxytestosterone]: the Activity result in [8] and in data set [9] was “is not an inhibitor [-]” each time. What is called IC50 is the concentration that gives 50% inhibition. Read a low IC50 as higher potency. On to `CN1CCCC(n2nc(Cc3ccc(Cl)cc3)c3ccccc3c2=O)CC1` (stereo not given) [AZELASTINE], for which the IC50 is 16 µM in data set [10] and 30 µM in data set [11]. On to `Cc1ncc2n1-c1ccc(Cl)cc1C(c1ccccc1F)=NC2O` (stereo not given) [4-Hydroxymidazolam], for which the Activity entry in data set [12] is “is not an inhibitor [-]”. `CN1CCCC(N2NC(Cc3ccc(Cl)cc3)c3cc(O)ccc3C2=O)CC1` (stereo not given) [6-hydroxyazelastine]: the Activity entry in [13] and in [14] was “is not an inhibitor [-]” in each case. `CCCCc1oc2ccccc2c1C(=O)c1cc(I)c(OCCNCC)c(I)c1` [DESETHYLAMIODARONE]: the IC50 in data set [10] came to 15.4 µM; in data set [11], 25.2 µM. On to `O=c1c2ccccc2c(Cc2ccc(Cl)cc2)nn1C1CCCNCC1` (stereo not given) [DESMETHYLAZELASTINE], for which the IC50 in data set [10] was 11.8 µM; in data set [11], 41.8 µM. Turning to `C[C@]12CC[C@H]3[C@@H](CCC4=CC(=O)CC[C@@]43C)[C@@H]1CC[C@@H]2O` [TESTOSTERONE], the Activity entry in data set [15] and in [16] was “is not an inhibitor [-]” throughout.
